Data reported in patent publication US20090053138A1, “Stabilized Aptamers to Platelet Derived Growth Factor and their Use as Oncology Therapeutics” (priority 2002, published 2009).
pIC50: −log10 of the molar value. Like-named read-outs stand apart in the source and are kept apart here. {PEG40k} = 40 kDa polyethylene glycol; [invdT] = inverted (3'-3') thymidine; [HEG] = hexaethylene glycol spacer

Experiments:
PDGF BB = PDGF BB (Homo sapiens, UniProt P01127); assay: Cell migration assay, RPE cells; format: cell-based; set-up: purchased PeproTech, Rocky Hill, N.J
Procedure: PDGF is a strong mitogen as well as a chemoattractant. […] In the cell migration assay 80,000 cells 3T3 rat fibroblasts (ATCC, Manassas, Va.) or RPE (retinal pigmented epithelial) cells (ATCC, Manassas, Va.) were plated per well into a 24 well plate with 8 micron filters (BD Biosciences, Discovery Labware, Bedford, Mass.). 0.5 ml DMEM/0.2% FCS was added to the top chamber and 0.8 ml DMEM/0.2% FCS was added to the bottom chamber. The system was equilibrated by incubating for 4 hours at 37 degrees celsius. Human PDGF-BB (PeproTech, Rocky Hill, N.J.) (for RPE cells) or rat PDGF-BB (PeproTech) (for 3T3 cells) was added to the bottom chamber (0 ng/ml-100 ng/ml final concentration). […] Cells were scraped off on the top of filter with a Q-tip. The cells that migrated to the bottom of the filter were fixed with a mixture of cold 50% Methanol/50% Acetone for 3 minutes.
Following incubation filters were washed with 1×PBS and stained with Giemsa Stain (Matheson Coleman and Bell) for 1-2 hours and migration was visualized by taking pictures on a Zeiss Axiovert 200M microscope.
The 96 well assay starts by bringing plates and reagents to room temperature. 150 ul of DMEM/0.2% FBS was added with or without chemoattractant to the wells of the feeder tray.
Following incubation, the migration chamber plate was removed and the non-migratory cells were discarded. The number of migratory cells was quantitated according to manufacturer's recommended instructions. In brief, media from the top side was removed by flipping out the remaining cell suspension, and was placed onto a new feeder tray that contains 150 ul of pre-warmed Cell Detachment Solution. This mixture was incubated for 30 minutes at 37 degrees celsius. CyQuant GR Dye 1:75 was diluted with 4× Lysis Buffer and 50 ul of the Lysis Buffer/Dye Solution was added to each well containing 150 ul of the solution containing migratory cells.

[1] = mouse, in vivo, 10 mg/kg
Text: The pharmacokinetic (PK) data shown in FIG. 12A was subjected to non-compartmental analysis (NCA) using the industry-standard software package WinNonLin™ v.4.0 (Pharsight Corp., Mountain View, Calif.). […] The pharmacokinetic (PK) data shown in FIG. 12B was subjected to noncompartmental analysis (NCA) using the industry-standard software package WinNonLin™ v.4.0 (Pharsight Corp., Mountain View, Calif.).
The pharmacokinetic (PK) data shown in FIG. 12B was subjected to noncompartmental analysis (NCA) using the industry-standard software package WinNonLin™ v.4.0 (Pharsight Corp., Mountain View, Calif.).

U87 glioblastoma cells = assay: Clonogenic growth assay; format: cell-based
Procedure: U87 glioblastoma cells (ATCC) were grown in the presence or absence of mitogen as well as aptamer as shown in the panels. U87 cells were plated in DMEM/10% FBS to 50% confluency in 100 mm dishes. […] The addition of a final concentration of 50 ng/ml PDGF BB alone caused the appearance of highly connected three dimensional cell clusters. […] Thus, the aptamer blocks cell to cell adhesion of U87 cells which are known to have PDGF driven autocrine loops.

[2] = test system: LS174T colon cancer xenograft
Text: Experimental overview. Human HT-29 or LS174T colon cancer xenotransplants were established in athymic nude mice (Nu/Nu mice, Charles River Labs, Wilmington, Mass.) by injecting mice with 1×10^7 HT29 cells (ATCC, Manassas, Va.), or 2×10^6 LS174T cells (ATCC Manassas, Va.) sub-cutaneously and allowing the tumors to grow for 5 days. On day 5, two dimensional measurements of the established tumors were taken using a digital caliper. Once tumor measurements were taken, the mice were randomized into groups such that the average tumor size was the same in each group. […]
A third experiment (Experiment 3) was designed to test ARC308/irinotecan and GLEEVEC™/irinotecan dosing regimens in a colon cancer xenotransplant model using human colon carcinoma cell line LS174T (ATCC). […] ARC308 was dosed via intraperitoneal delivery at 50 mg/kg once daily, and GLEEVEC™ was dosed at 50 mg/kg once daily, Monday through Friday. ARC308 prevents PDGF-BB from binding the PDGF receptor; this molecule has a 30K PEG attached. […] The results are statistically significant (two tailed students T-test).
An efficacy analysis of three treatment groups in this study is shown in Table 10 in terms of log cell kill and log cell kill net. Log cell kill is the log(base10) of the number of tumor cells before treatment divided by the number of cells after treatment. […] A fourth experiment (Experiment 4) was designed to further test ARC308/irinotecan dosing regimens in a colon cancer xenotransplant model using human colon carcinoma cell line LS174T (ATCC). […]

PDGF = assay: PDGF-driven Elk Luciferase reporter gene assay; format: cell-based; conditions: PDGF 50 ng/ml, 3T3 cells
Procedure: 10,000 3T3 cells/well were plated in DMEM/10% FBS in a 96 well plate. They were transfected using FuGene (Roche, Indianapolis, Ind.) at 3:1 ratio with 5 ng of ELK-1 (Stratagene, La Jolla, Calif.) and 20 ng of pFR-Luciferase plasmids (Stratagene, La Jolla, Calif.). When PDGF is added at a final concentration of 50 ng/ml to 3T3 cells, an increase in the Luciferase signal can be observed which corresponds to the effect of the mitogen on the reporter gene. Steady Glo Luciferase assay (Promega, Madison, Wis.) was used to detect luciferase. […] (FIG. 17.)

[3] = 100 nM aptamer, 5 nM PDGF BB, 24 well format

PDGF BB, sequence (P01127 82-190 limits assumed): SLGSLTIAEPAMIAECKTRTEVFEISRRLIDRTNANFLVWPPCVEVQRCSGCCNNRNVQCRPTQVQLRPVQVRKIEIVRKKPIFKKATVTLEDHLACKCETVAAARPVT

Row | Substance | migration of RPE cells (PDGF BB; [3]) | migration of RPE cells (PDGF BB; 96 well format) | Cmax ([1]; ip) [µM] | Vz ([1]; ip) [L/kg] | bioavailability, F ([1]; ip) | t1/2 ([1]; ip) [h] | Cmax ([1]; iv) [µM] | Vz ([1]; iv) [L/kg] | bioavailability, F ([1]; iv) | Cmax ([1]; sc) [µM] | Vz ([1]; sc) [L/kg] | bioavailability, F ([1]; sc) | t1/2 ([1]; sc) [h] | proliferation rate of U87 cells (MTT assay) (U87 glioblastoma cells) | occurrence of three dimensional cell clusters (U87 glioblastoma cells; 50 ng/ml PDGF-BB plus ARC127) | efficacy of irinotecan (rate of tumor growth) ([2]; Experiment 2: ARC127 50 mg/kg IP once daily + irinotecan 150 mg/kg weekly vs irinotecan alone) | dose-limiting side effects ([2]; in vivo experiments) | pIC50 (PDGF) | concentration reducing the Luciferase signal to no mitogen levels (PDGF) [nM]
1 | 5′-(SEQ ID NO.4)-HEG-(SEQ ID NO:5)-HEG-(SEQ ID NO:6)-3 (chain 1 CAGCGUACG; chain 2 CGTACCGATUCA; chain 3 TGAAGCUG; HEG spacers joining pieces; synthetic aptamer; modified_base (4)..(4) cytidine is 2′-fluoro; modified_base (5)..(5) gm; modified_base (6)..(6) uridine is 2′-fluoro; modified_base (8)..(8) cytidine is 2′-fluoro; modified_base (9)..(9) gm; modified_base (7)..(7) gm; modified_base (10)..(10) uridine is 2′-fluoro; modified_base (11)..(11) cytidine is 2′-fluoro; modified_base (12)..(12) adenosine is 2′-O-Methyl; modified_base (6)..(6) cytidine is 2′-fluoro; modified_base (7)..(7) uridine is 2′-fluoro; modified_base (8)..(8) gm) [ARC128, reference compound] | no activity | did not affect migration | – | – | – | – | – | – | – | – | – | – | – | – | – | – | – | – | –
2 | 5′-[40 K PEG]-(SEQ ID NO:1)-HEG-(SEQ ID NO:2)-HEG-(SEQ ID NO:3)-3′-dT-3′ (chain 1 CAGGCUACG; chain 2 CGTAGAGCAUCA; chain 3 TGATCCUG; piece 1: 2'-fluoro at 6, 8, 2'-O-methyl at 9, 5' {PEG40k}, 3' [HEG], other sugars and backbone not given here; piece 2: 2'-O-methyl at 5, 7, 12, 2'-fluoro at 10, 11, 3' [HEG], other sugars and backbone not given here; piece 3: 2'-fluoro at 5, 6, 7, 2'-O-methyl at 8, 3' [invdT], other sugars and backbone not given here) [ARC127] | inhibits the effects of 5 nM PDGF-BB | reduced migration levels to background | 12.8 | 0.078 | 0.625 | 7.856 | 29.7 | 0.053 | 1.000 | 3.18 | 0.238 | 0.240 | 9.176 | no effect on proliferation rate | reduced the occurrence of clusters to background level | enhanced the efficacy of irinotecan treatment | not evident | ≥ 8.70 | 3
